From patent US11466028B2, “Fused 1,4-oxazepines as BET protein degraders” (THE REGENTS OF THE UNIVERSITY OF MICHIGAN, priority 2016, dated 2022)
Read-outs that look alike come from different tables or passages of the source.

Key:
MOLM-13 = assay: CellTiter-Glo cell growth inhibition, MOLM-13; type: cell-based; conditions: Homo sapiens
Method: (§1) Cell growth inhibitory activity of representative Compounds of the Disclosure was determined using the CellTiter-Glo® Luminescent Cell Viability Assay. Cells were seeded in 384-well white opaque cell culture plates at a density of 2,000 cells/well with serially diluted compounds and incubated at 37° C. in an atmosphere of 95% air and 5% CO2 for 4 days. Cell viability was determined using the CellTiter-Glo® Luminescent Cell Viability Assay Kit (Promega, Madison, Wis.) according to the manufacture's instruction. Briefly, a volume of CellTiter-Glo® Reagent equal to the volume of cell culture medium was added to each well, and then the plates were incubated at room temperature for 10-20 minutes. The luminescent signal was measured using a Tecan Infinite M1000 multimode microplate reader (Tecan, Morrisville, N.C.). The half maximal inhibitory concentration (IC50) was calculated using the GraphPad Prism 5 software (GraphPad Software, La Jolla, Calif.).
(§2) Cpd. Nos. 18 and 19 were tested in various leukemia cell lines using the CellTiter-Glo® Luminescent Cell Viability Assay as described in Example 35.

MDA-MB-231 = assay: CellTiter-Glo cell growth inhibition, MDA-MB-231; type: cell-based; conditions: Homo sapiens, MDA-MB-231, 96 h, 4 days, Table 4
Method: as §1

RS4;11 xenograph tumors = assay: RS4;11 xenograft model; type: in vivo, SCID mice; conditions: SCID mice
Method: Cpd. Nos. 7 and 11 were dissolved in 10% PCP [10% PEG400 (Sigma), 3% Cremophor (Sigma), and 87% PBS (Gibco)]. The pH of the drug solutions were checked before use and adjusted with 0.5N NaOH to be between pH 6.5 and 8.0 for IV (intravenous) administration.
RS4;11 cells were maintained at 37° C., 95% air, 5% carbon dioxide in Improved MEM (Richter's Mod.) supplemented with 10% Fetal Bovine Serum, 100 units/ml of penicillin and 100 units/ml of streptomycin (GIBCO™, Invitrogen Corp.) and passaged twice weekly.
Tumor cells for xenografts were harvested with Trypsin (0.05%)-EDTA (0.53 mM) (GIBCO™, Invitrogen Corp.), growth medium added and cells placed on ice. Cells were washed once with 1×PBS (GIBCO™, Invitrogen Corp.) and re-suspended in PBS. After washing in PBS, cells were re-suspended in an ice cold mixture of 1:1 PBS and Matrigel (BD Biosciences, Invitrogen Corp.) for a final Matrigel protein concentration of 5 mg/ml. Cells at 5×10^6 cells in 0.1 ml were injected subcutaneously (s.c.) into the flank region of each mouse using a 25 gauge needle. All tumors were inoculated into SCID mice (strain:236) C.B-17 SCID, Charles River.
The size of tumors growing in the mice was measured in two dimensions using calipers. Tumor volume (mm^3)═(A×B^2)/2 where A and B are the tumor length and width (in mm), respectively. During treatment, tumor volume and body weight were measured three times a week. After the treatment was stopped, tumor volume and body weight was measured at least once a week.
Tumors were not allowed to exceed 10% of the animals total body weight. If an animal had two or more tumors the total weight of all tumors were not allowed to exceed 10% of the animal's total body weight. At the end of the experimental period or when tumor size approached 10% of the total body weight, the animal was euthanized.
Before treatment began, tumors were allowed to grow to 100-200 mm^3 in volume, at which point the blood vessel supplies to the tumor should have been well established. Mice with tumors within acceptable size range were randomized into treatment groups of seven mice. Cpd. Nos. 7 and 11 were given i.v. at 10 mg/kg at days 1,3, and 5 per week for two weeks. The Control group received vehicle alone. Cpd. Nos. 16, 18, 22 and 48 were given i.v. at 5 mg/kg at days 1, 3, and 5 per week for two weeks. The Control group received vehicle alone.
(§3) Representative Compounds of the Disclosure were tested in the RS4;11 and other xenograph models using similar techniques. […] No. 22 in the MDA-MB-231 TNBC model.

RS4;11 = assay: CellTiter-Glo cell growth inhibition, RS4;11; type: cell-based; conditions: Homo sapiens
Method: as §1, §2

MV4;11 xenograph = MV4;11 xenograph model; type: in vivo; conditions: FIG. 9
Method: as §3

KG1 = assay: CellTiter-Glo cell viability, KG1 leukemia cell line; type: cell-based; conditions: Homo sapiens, KG-1, Table 5
Method: as §1, §2

BRD4 [1] = molecular target: T1, BRD4 (Homo sapiens, UniProt O60885); assay: Western blot, degradation of BRD4 in RS4;11 cells; type: cell-based; conditions: 2.5 h, as compared to Compound A, FIG. 1
T1 construct: Collected cells were lysed in lysis buffer; endogenous in cells; host or cells: RS4;11 and MOLM-13 leukemia cells
Method: (§4) Cells were treated with compounds at the indicated concentrations for 2.5 h and 3 h, respectively, for RS4;11 (see FIG. 1) and MOLM-13 (see FIG. 2) cells. Compound A is ((S)-3-benzyl-6,9-dimethyl-2-((1-methyl-1H-pyrazol-4-yl)ethynyl)-4H,6H-thieno[2,3-e][1,2,4]triazolo[3,4-c][1,4]oxazepine). See Cpd. No. 85 of U.S. Appl. No. 62/295,271.
(§5) Collected cells were lysed in lysis buffer [1% CHAPS, 150 mM NaCl, 20 mM Tris-HCl, 1 mM. EDTA, 1 mM EGTA, and COMPLETE proteinase inhibitor (Roche)] for 30 minutes on ice. Protein concentrations were determined using the Bio-Rad Protein Assay Dye reagent. Whole tumor lysates (20 μg) were separated on a 4-20% Novex gels (Invitrogen). The separated proteins were transferred to a PVDF membrane (BIO-RAD) and the PVDF membrane was then blotted with 5% Blotting-Grade Blocker (BIO-RAD) for 1 hour at room temperature. The primary antibodies used were BRD4 rabbit polyclonal antibody [Bethyl Laboratories, Inc, cat #A301] and BRD2 antibody.
(§6) The BIO-RAD Clarity Western ECL Substrates (BIO-RAD) and HyBlot CL film (Denville) were used for signal development and detection using a SRX-101A tabletop processor (Konica Minolta).

HL60 = assay: CellTiter-Glo cell viability, HL60 leukemia cell line; type: cell-based; conditions: Homo sapiens, HL-60, Table 5
Method: as §1, §2

MV4; 11 = assay: CellTiter-Glo cell viability, MV4;11 leukemia cell line; type: cell-based; conditions: Homo sapiens, Table 5
Method: as §1, §2

AML5 = assay: CellTiter-Glo cell viability, AML5 leukemia cell line; type: cell-based; conditions: Table 5
Method: as §1, §2

AML3 = assay: CellTiter-Glo cell viability, AML3 leukemia cell line; type: cell-based; conditions: Table 5
Method: as §1, §2

MOLM16 = assay: CellTiter-Glo cell viability, MOLM16 leukemia cell line; type: cell-based; conditions: Table 5
Method: as §1, §2

BRD2 [2] = molecular target: T2, BRD2 (Homo sapiens, UniProt P25440); assay: Western blot, degradation of BRD2 in RS4;11 cells; type: cell-based; conditions: 2.5 h, as compared to Compound A, FIG. 1
T2 construct: endogenous in cells; host or cells: RS4;11 and MOLM-13 leukemia cells
T2 sequence (P25440 whole entry): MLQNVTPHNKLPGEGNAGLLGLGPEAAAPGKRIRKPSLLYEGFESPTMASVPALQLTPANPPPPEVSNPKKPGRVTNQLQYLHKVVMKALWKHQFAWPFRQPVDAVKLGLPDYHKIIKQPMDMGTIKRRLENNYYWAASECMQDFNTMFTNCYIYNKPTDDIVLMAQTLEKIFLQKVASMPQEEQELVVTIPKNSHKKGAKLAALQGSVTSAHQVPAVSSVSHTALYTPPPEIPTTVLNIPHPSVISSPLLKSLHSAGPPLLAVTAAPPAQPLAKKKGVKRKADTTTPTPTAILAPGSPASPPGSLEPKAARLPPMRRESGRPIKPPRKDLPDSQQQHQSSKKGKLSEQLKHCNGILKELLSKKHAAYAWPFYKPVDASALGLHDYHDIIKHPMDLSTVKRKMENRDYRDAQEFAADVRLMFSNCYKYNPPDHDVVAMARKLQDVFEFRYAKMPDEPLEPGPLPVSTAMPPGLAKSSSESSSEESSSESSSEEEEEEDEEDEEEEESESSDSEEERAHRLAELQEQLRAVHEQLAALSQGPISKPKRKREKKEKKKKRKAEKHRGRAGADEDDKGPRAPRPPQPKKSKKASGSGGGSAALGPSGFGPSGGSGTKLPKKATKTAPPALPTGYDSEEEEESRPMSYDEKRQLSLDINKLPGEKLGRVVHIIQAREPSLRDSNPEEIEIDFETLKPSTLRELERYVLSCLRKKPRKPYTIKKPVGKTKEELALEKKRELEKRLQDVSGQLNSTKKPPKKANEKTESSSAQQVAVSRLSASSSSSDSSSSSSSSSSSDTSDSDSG
Method: as §4, §5, §6

BRD4 [3] = molecular target: T1, BRD4; assay: Western blot, degradation of BRD4 in MOLM-13 cells; type: cell-based; conditions: 3 h, as compared to Compound A, FIG. 2
Method: as §4, §5, §6

MonoMac6 = assay: CellTiter-Glo cell viability, MonoMac6 leukemia cell line; type: cell-based; conditions: Homo sapiens, MONO-MAC-6, Table 5
Method: as §1, §2

BRD2 [4] = molecular target: T2, BRD2; assay: Western blot, degradation of BRD2 in MOLM-13 cells; type: cell-based; conditions: 3 h, as compared to Compound A, FIG. 2
Method: as §4, §5, §6

[5] = MOLM-13, 96 h, 4 days, Table 4, read-out: MOLM-13 IC50
[6] = RS4-11, 96 h, 4 days, Table 4, read-out: RS-4, 11 IC50
[7] = i.v. 5 mg/kg at days 1, 3, 5 per week for two weeks, FIG. 4

Structure (SMILES) | IC50 (MOLM-13; [5]) [nM] | IC50 (MDA-MB-231) [nM] | IC50 (RS4;11; [6]) [nM] | also measured
Cc1nnc2n1-c1sc(C#Cc3cnn(CCCCNc4cccc5c4CN(C4CCC(=O)NC4=O)C5=O)c3)c(Cc3ccccc3)c1CO[C@H]2C (stereo partly drawn) [Cpd. No. 11, 3-(4-((4-(4-(((S)-3-benzyl-6,9-dimethyl-4H,6H-thieno[2,3-e][1,2,4]triazolo[3,4-c][1,4]oxazepin-2-yl)ethynyl)-1H-pyrazol-1-yl)butyl)amino)-1-oxoisoindolin-2-yl) piperidine-2,6-dione] | 0.4 | 2.3 |  | tumor regression in RS4;11 xenograph tumors (RS4;11 xenograph tumors; i.v. 10 mg/kg at days 1, 3, 5 per week for two weeks, FIG. 3): induce tumor regression
Cc1nnc2n1-c1sc(C#Cc3cnn(CCCCNc4cccc5c4CN(C4CCC(=O)NC4=O)C5=O)c3)c(Cc3ccccc3)c1COC2 (centres unmarked) [Cpd. No. 17, 3-(4-((4-(4-((3-benzyl-9-methyl-4H,6H-thieno[2,3-e][1,2,4]triazolo[3,4-c][1,4]oxazepin-2-yl)ethynyl)-1H-pyrazol-1-yl)butyl)amino)-1-oxoisoindolin-2-yl) piperidine-2,6-dione] | 0.5 | 0.21 | 0.06 | tumor regression in the MV4;11 xenograph model (MV4;11 xenograph): induce tumor regression
Cc1nnc2n1-c1sc(C#Cc3cnn(CCCCCc4cccc5c4CN(C4CCC(=O)NC4=O)C5=O)c3)c(Cc3ccccc3)c1CO[C@H]2C (stereo partly drawn) [Cpd. No. 19, 3-(4-(5-(4-(((S)-3-benzyl-6,9-dimethyl-4H,6H-thieno[2,3-e][1,2,4]triazolo[3,4-c][1,4]oxazepin-2-yl)ethynyl)-1H-pyrazol-1-yl)pentyl)-1-oxoisoindolin-2-yl) piperidine-2,6-dione] | 2.7 | 12 | 0.06 | IC50 (KG1): 3.99 ± 0.18 nM; IC50 (MOLM-13; MOLM-13, Table 5, read-out: IC50 (nM) MOLM13): 7.6 nM; degradation of BRD4 protein (Western blot) (BRD4 [1]): induce degradation; IC50 (RS4;11; RS4-11, Table 5, read-out: IC50 (nM) RS4, 11): 0.8 ± 0.1 nM; IC50 (HL60): 0.97 ± 0.08 nM; IC50 (MV4; 11): 0.46 ± 0.1 nM; IC50 (AML5): 0.84 ± 0.14 nM; IC50 (AML3): 2.44 ± 0.22 nM; IC50 (MOLM16): 0.15 ± 0.06 nM; degradation of BRD2 protein (Western blot) (BRD2 [2]): induce degradation; degradation of BRD4 protein (Western blot) (BRD4 [3]): induce degradation; IC50 (MonoMac6): 1.8 ± 0.3 nM; degradation of BRD2 protein (Western blot) (BRD2 [4]): induce degradation
Cc1nnc2n1-c1sc(C#Cc3cn(CCCC#Cc4cccc5c4CN(C4CCC(=O)NC4=O)C5=O)cn3)c(Cc3ccccc3)c1COC2 (centres unmarked) [Cpd. No. 50, 3-(4-(5-(4-((3-benzyl-9-methyl-4H,6H-thieno[2,3-e][1,2,4]triazolo[3,4-c][1,4]oxazepin-2-yl)ethynyl)-1H-imidazol-1-yl)pent-1-yn-1-yl)-1-oxoisoindolin-2-yl)piperidine-2,6-dione] | > 10 | > 100 | > 1 | 
Cc1nnc2n1-c1sc(C#Cc3cnn(CCCCOc4cccc5c4CN(C4CCC(=O)NC4=O)C5=O)c3)c(Cc3ccccc3)c1COC2 (centres unmarked) [compound 65, 3-(4-(4-(4-((3-benzyl-9-methyl-4H,6H-thieno[2,3-e][1,2,4]triazolo[3,4-c][1,4]oxazepin-2-yl)ethynyl)-1H-pyrazol-1-yl)butoxy)-1-oxoisoindolin-2-yl)piperidine-2,6-dione] |  |  |  | tumor regression in the MV4;11 xenograph model (MV4;11 xenograph): induce tumor regression

Continued by falling IC50 (MOLM-13; [5]), values first:

IC50 (MOLM-13; [5]) [nM] | IC50 (MDA-MB-231) [nM] | IC50 (RS4;11; [6]) [nM] | Structure (SMILES) | also measured
15.7 | 60 | 3 | Cc1nnc2n1-c1sc(C#Cc3cn(CCCC#Cc4cccc5c4C(=O)N(C4CCC(=O)NC4=O)C5=O)cn3)c(Cc3ccccc3)c1CO[C@H]2C (stereo partly drawn) [compound 21, 4-(5-(4-(((S)-3-benzyl-6,9-dimethyl-4H,6H-thieno[2,3-e][1,2,4]triazolo[3,4-c][1,4]oxazepin-2-yl)ethynyl)-1H-imidazol-1-yl)pent-1-yn-1-yl)-2-(2,6-dioxopiperidin-3-yl)isoindoline-1,3-dione] | 
1.7 | 0.33 | 0.22 | Cc1nnc2n1-c1sc(C#Cc3cnn(CCCCCc4cccc5c4CN(C4CCC(=O)NC4=O)C5=O)c3)c(Cc3ccccc3)c1COC2 (centres unmarked) [Cpd. No. 48, 3-(4-(5-(4-((3-benzyl-9-methyl-4H,6H-thieno[2,3-e][1,2,4]triazolo[3,4-c][1,4]oxazepin-2-yl)ethynyl)-1H-pyrazol-1-yl)pentyl)-1-oxoisoindolin-2-yl) piperidine-2,6-dione] | tumor regression in RS4;11 xenograph tumors (RS4;11 xenograph tumors; [7]): induce tumor regression
0.9 | 0.29 | 0.1 | Cc1nnc2n1-c1sc(C#Cc3cnn(CCCCNc4cccc5c4C(=O)N(C4CCC(=O)NC4=O)C5=O)c3)c(Cc3ccccc3)c1COC2 (centres unmarked) [Cpd. No. 16, 4-((4-(4-((3-benzyl-9-methyl-4H,6H-thieno[2,3-e][1,2,4]triazolo[3,4-c][1,4]oxazepin-2-yl)ethynyl)-1H-pyrazol-1-yl)butyl)amino)-2-(2,6-dioxopiperidin-3-yl) isoindoline-1,3-dione] | tumor regression in RS4;11 xenograph tumors (RS4;11 xenograph tumors; [7]): induce tumor regression
